According to PubChem BioAssay (NCI):
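Protocol summary: plate cells (96-well), add compound at 5 concentrations, incubate 48 h, interpolate endpoints linearly. GI50: concentration for 50% inhibition of growth. TGI denotes the concentration required for complete inhibition of growth.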 Where a SMILES comes first, the peptide text is derived from it. [ ]: non-standard residue; d: D form. Phe(ol) = N[C@H](CO)Cc1ccccc1; dIva = CC[C@@](C)(N)C(=O)O; Aib = CC(C)(N)C(=O)O

Assays:
Experiment in all cases: DTP human tumour cell line panel, 48 h; in the data active means GI50 below about 0.43 µM; inactive means the rest
[1] = tested on: 786-0 renal
[2] = tested on: A498 renal
[3] = tested on: A549 NSCLC
[4] = tested on: ACHN renal
[5] = tested on: BT-549 breast
[6] = tested on: CCRF-CEM leukemia
[7] = tested on: COLO 205 colon
[8] = tested on: EKVX NSCLC
[9] = tested on: HCC-2998 colon
[10] = tested on: HCT-116 colon
[11] = tested on: HCT-15 colon
[12] = tested on: HL-60(TB) leukemia
[13] = tested on: HOP-62 NSCLC
[14] = tested on: HOP-92 NSCLC
[15] = tested on: HS 578T breast
[16] = tested on: HT29 colon
[17] = tested on: IGROV1 ovarian
[18] = tested on: K-562 leukemia
[19] = tested on: KM12 colon
[20] = tested on: LOX IMVI melanoma
[21] = tested on: M14 melanoma
[22] = tested on: MALME-3M melanoma
[23] = tested on: MCF7 breast
[24] = tested on: MDA-MB-231 breast
[25] = tested on: MDA-MB-435
[26] = tested on: MOLT-4 leukemia
[27] = tested on: NCI-H226 lung
[28] = tested on: NCI-H23 lung
[29] = tested on: NCI-H460 lung
[30] = tested on: NCI-H522 lung
[31] = tested on: NCI/ADR-RES ovarian
[32] = tested on: OVCAR-3 ovarian
[33] = tested on: OVCAR-4 ovarian
[34] = tested on: OVCAR-5 ovarian
[35] = tested on: OVCAR-8 ovarian
[36] = tested on: PC-3 prostate
[37] = tested on: RPMI-8226 leukemia
[38] = tested on: RXF 393 renal
[39] = tested on: SF-268 CNS
[40] = tested on: SF-295 CNS
[41] = tested on: SF-539 CNS
[42] = tested on: SK-MEL-2 melanoma
[43] = tested on: SK-MEL-28 melanoma
[44] = tested on: SK-MEL-5 melanoma
[45] = tested on: SK-OV-3 ovarian
[46] = tested on: SN12C renal
[47] = tested on: SNB-19 CNS
[48] = tested on: SNB-75 CNS
[49] = tested on: SR leukemia
[50] = tested on: SW-620 colon
[51] = tested on: T-47D breast
[52] = tested on: TK-10 renal
[53] = tested on: U251 CNS
[54] = tested on: UACC-257 melanoma
[55] = tested on: UACC-62 melanoma
[56] = tested on: UO-31 renal
[57] = tested on: CAKI-1 renal
[58] = tested on: DU-145 prostate

CC[C@@](C)(NC(=O)C(C)(C)NC(=O)[C@@H](NC(=O)[C@@H]1CCCN1C(=O)C(C)(C)NC(=O)[C@H](CC(C)C)NC(=O)CNC(=O)C(C)(C)NC(=O)[C@@H](NC(=O)C(C)(C)NC(=O)[C@H](CCC(N)=O)NC(=O)[C@H](C)NC(=O)C(C)(C)NC(=O)[C@H](C)NC(=O)C(C)(C)NC(=O)[C@@H]1CCCN1C(=O)C(C)(C)NC(C)=O)C(C)C)C(C)C)C(=O)N[C@@H](CCC(N)=O)C(=O)N[C@@H](CCC(N)=O)C(=O)N[C@H](CO)Cc1ccccc1 (Ac-[Aib]P[Aib]A[Aib]AQ[Aib]V[Aib]GL[Aib]PV[Aib][dIva]QQ[Phe(ol)])
4020 nM: TGI [51]
3620 nM: TGI [44]
active: GI50 [23] 215 nM | GI50 [37] 265 nM
2950 nM: TGI [14]
2140 nM: TGI [22]
> 4250 nM: TGI [1] | TGI [2] | TGI [3] | TGI [4] | TGI [6] | TGI [7] | TGI [8] | TGI [9] | TGI [10] | TGI [11] | TGI [13] | TGI [15] | TGI [16] | TGI [17] | TGI [18] | TGI [19] | TGI [20] | TGI [21] | TGI [23] | TGI [24] | TGI [25] | TGI [26] | TGI [27] | TGI [28] | TGI [29] | TGI [31] | TGI [32] | TGI [33] | TGI [34] | TGI [35] | TGI [36] | TGI [39] | TGI [40] | TGI [41] | TGI [42] | TGI [43] | TGI [45] | TGI [46] | TGI [47] | TGI [48] | TGI [49] | TGI [50] | TGI [52] | TGI [53] | TGI [54] | TGI [55] | TGI [56]
2410 nM: TGI [37]
2670 nM: TGI [5]
inactive: GI50 [1] > 4250 nM | GI50 [2] > 4250 nM | GI50 [3] 2390 nM | GI50 [4] > 4250 nM | GI50 [5] 966 nM | GI50 [6] 2930 nM | GI50 [7] 1290 nM | GI50 [8] > 4250 nM | GI50 [9] 1960 nM | GI50 [10] 1750 nM | GI50 [11] > 4250 nM | GI50 [12] 960 nM | GI50 [13] > 4250 nM | GI50 [14] 1060 nM | GI50 [15] 2480 nM | GI50 [16] 1720 nM | GI50 [17] 2510 nM | GI50 [18] 2400 nM | GI50 [19] 1470 nM | GI50 [20] 1360 nM | GI50 [21] > 4250 nM | GI50 [22] 856 nM | GI50 [24] 1430 nM | GI50 [25] 1160 nM | GI50 [26] 1470 nM | GI50 [27] > 4250 nM | GI50 [28] 1000 nM | GI50 [29] 1520 nM | GI50 [30] 873 nM | GI50 [31] > 4250 nM | GI50 [32] 1140 nM | GI50 [33] 1570 nM | GI50 [34] 1640 nM | GI50 [35] > 4250 nM | GI50 [36] 1660 nM | GI50 [38] 964 nM | GI50 [39] 1630 nM | GI50 [40] > 4250 nM | GI50 [41] 1530 nM | GI50 [42] 1370 nM | GI50 [43] 1660 nM | GI50 [44] 1170 nM | GI50 [45] 1550 nM | GI50 [46] 789 nM | GI50 [47] 1270 nM | GI50 [48] 1150 nM | GI50 [49] 1410 nM | GI50 [50] 3340 nM | GI50 [51] 974 nM | GI50 [52] > 4250 nM | GI50 [53] 1610 nM | GI50 [54] 1210 nM | GI50 [55] 1730 nM | GI50 [56] > 4250 nM
3110 nM: TGI [38]
4030 nM: TGI [30]
2080 nM: TGI [12]

COc1ccc2c(C3=C(c4cn(C)c5ccccc45)C(=O)NC3=O)coc2c1
13100 nM: TGI [19]
477 nM: TGI [25]
70400 nM: TGI [47]
23600 nM: TGI [28]
12100 nM: TGI [10]
1660 nM: TGI [41]
> 88400 nM: TGI [8]
787 nM: TGI [32]
33000 nM: TGI [22]
24400 nM: TGI [11] | TGI [17]
13700 nM: TGI [6]
30700 nM: TGI [34]
8680 nM: TGI [49]
15100 nM: TGI [40]
1240 nM: TGI [38]
15500 nM: TGI [4]
27900 nM: TGI [39]
4830 nM: TGI [16]
16600 nM: TGI [20] | TGI [55]
35000 nM: TGI [43]
inactive: GI50 [1] 524 nM | GI50 [2] 7450 nM | GI50 [3] 1000 nM | GI50 [4] 798 nM | GI50 [5] 847 nM | GI50 [58] 541 nM | GI50 [8] 593 nM | GI50 [9] 650 nM | GI50 [14] 21300 nM | GI50 [17] 700 nM | GI50 [20] 558 nM | GI50 [22] 12200 nM | GI50 [24] 632 nM | GI50 [27] 1520 nM | GI50 [28] 804 nM | GI50 [33] 6910 nM | GI50 [34] 901 nM | GI50 [35] 462 nM | GI50 [36] 471 nM | GI50 [39] 1190 nM | GI50 [40] 469 nM | GI50 [43] 4950 nM | GI50 [46] 715 nM | GI50 [47] 712 nM | GI50 [51] 430 nM | GI50 [52] 13600 nM | GI50 [54] 1440 nM | GI50 [56] 468 nM
710 nM: TGI [48]
11600 nM: TGI [29]
17300 nM: TGI [57]
65900 nM: TGI [33]
26000 nM: TGI [23]
15300 nM: TGI [46]
3800 nM: TGI [15]
> 100000 nM: TGI [3] | TGI [18] | TGI [36]
18600 nM: TGI [21]
> 57900 nM: TGI [50]
47200 nM: TGI [45]
25500 nM: TGI [2]
865 nM: TGI [12]
16500 nM: TGI [1] | TGI [35]
754 nM: TGI [30]
45500 nM: TGI [51]
44500 nM: TGI [14]
23500 nM: TGI [56]
18200 nM: TGI [5]
33200 nM: TGI [26]
15000 nM: TGI [31]
59700 nM: TGI [52]
active: GI50 [57] 160 nM | GI50 [6] 286 nM | GI50 [7] 289 nM | GI50 [10] 267 nM | GI50 [11] 172 nM | GI50 [12] 155 nM | GI50 [13] 416 nM | GI50 [15] 234 nM | GI50 [16] 300 nM | GI50 [18] 99.7 nM | GI50 [19] 347 nM | GI50 [21] 288 nM | GI50 [23] 208 nM | GI50 [25] 132 nM | GI50 [26] 424 nM | GI50 [29] 353 nM | GI50 [30] 188 nM | GI50 [31] 207 nM | GI50 [32] 193 nM | GI50 [37] 415 nM | GI50 [38] 215 nM | GI50 [41] 272 nM | GI50 [42] 191 nM | GI50 [44] 422 nM | GI50 [45] 368 nM | GI50 [48] 148 nM | GI50 [49] 84.9 nM | GI50 [50] 176 nM | GI50 [53] 411 nM | GI50 [55] 186 nM
12600 nM: TGI [37]
27600 nM: TGI [54]
8110 nM: TGI [24]
7300 nM: TGI [44]
931 nM: TGI [42]
10900 nM: TGI [9]
1310 nM: TGI [7]
17700 nM: TGI [27]
19500 nM: TGI [58]
20100 nM: TGI [13]
13000 nM: TGI [53]
